Data reported in US20150023954A1, “POTENTIATING ANTIBODY-INDUCED COMPLEMENT-MEDIATED CYTOTOXICITY VIA PI3K INHIBITION” (MEMORIAL SLOAN-KETTERING CANCER CENTER, priority 2012, published 2015).
Entries after “also recorded” stand apart in the source; their conditions may differ.

Legend:
tumor cells = assay: Cell growth experiments with MEK inhibitors and low dose PGNX; format: cell-based; settings: PGNX less than 0.0001 μg/m; AZD6244 0.1 μM-5.0 μM; data not shown
From the text: (§1) WST-1 assay. […] The Student t test was used for statistical analysis.

p-Akt [1] = assay: Western blot of p-Akt in CHLA136Luc cell extracts; format: cell-based, human; settings: BEZ235; cells treated with PGNX 0.001 μg/m for 4 hours
Experimental: (§2) Western blot. 1×10^6 Cells were plated into 6 well plates and incubated overnight. Cells were then treated with BEZ235, mAbs and human sera complement at the dose indicated for 4 hours. At the end of incubation, cells were collected and lysed with lysis buffer from Cell Signal (Danvers, Mass.), which contains protease inhibitor cocktail and phosphatase inhibitor cocktail (Calbiochem, Philadelphia, Pa.), each at 1:100 dilution (Cocktails:lysis buffer). The cell lysates were then quantitated using Bradford assay (Bio-Rad, Hercules, Calif.) according to that company's manual: 30 μg of cell lysate protein from each sample were running on 7.5% of Tris-HCL gel (Bio-Rad) and transferred to a PVDF membrane. Membrane was then blocked with Pierce blocking buffer overnight at 4° C., probed with indicated mAbs at 1:1000 dilution overnight at 4° C. and HRP-goat anti-rabbit-IgG antibody at 1:1000 for 1 hour. The membrane was washed with PBS-T (0.1% Tween-20+PBS) 5 minutes on a shaker 5 times after each incubating and then developed using Amersham™ ECL™ Prime Western Blotting Detection Reagent (GE Healthcare, Piscataway, N.J.). Imaging was acquired by scanning the membrane on the FujiFilm LAS-3000 Imager.

p-Akt [2] = assay: Western blot and immunofluorescent staining of p-Akt in Colo205 cells; format: cell-based
Experimental: as §2

DaudiLuc cells = assay: WST-1 cell growth assay, DaudiLuc; format: cell-based, human
From the text: as §1

Colo205Luc cells [3] = tested on: Colo205Luc cells
Experimental: (§4) WST-1 assay. WST-1 cell proliferation assay kit was used for detection of the extent of cellular proliferation according to the company's manual. Briefly, 20,000 cells in 100 μl of culture media as defined above were plated in a 96 well flat bottom plate and incubated at 37° C. in 5% CO2 overnight. Antibody doses between 0.02 ρg to 5 μg in 1 μl of defined culture media were added to each well and incubated for 1 hour at 37° C., 5% CO2; 4-10 μl of human serum complement (Quidel Corp. San Diego, Calif.) was then added to each well and incubated overnight. For assays testing the impact of PI3K inhibitor, BEZ235 (Chemdea, Ridgewood, N.J.) at 0.005, 0.5 or 5.0 μg/ml were added accordingly at same time when mAb was added. WST-1 agent (Roche Applied Science, Indianapolis Ind.) was added at 1:10 ratio at the end of incubation, and OD (Optical density) was acquired by reading the plates at 415 nm 4 hours later. The Student t test was used for statistical analysis.

Colo205Luc cells [4] = assay: Cell growth assay, Colo205; settings: for 5B1 cytotoxicity: all inhibitor doses tested, overnight with mAb 5B1 and HuC 5%; for tumor cell (Colo205) growth: high concentration of antibody, better than either inhibitor alone (FIG. 5C, 5D); for PGNX induced tumor cell cytotoxicity: highest PGNX and inhibitor dose tested; for tumor cell growth induced by low dose PGNX and complement: low dose PGNX (e.g., 0.0001 μg/ml), HuC′ 50 μl/ml
Experimental: as §4

CHLA136Luc cells [5] = assay: WST-1 cell growth assay, CHLA136Luc; format: cell-based, human; settings: for higher mAb dose (plus complement) cytotoxicity / low mAb dose (plus complement) growth acceleration: all inhibitor dose levels, with PGNX, 18 hours
From the text: as §1

CHLA136Luc cells [6] = assay: IV CHLA136Luc tumor challenge in SCID mice: survival and tumor growth by luciferase imaging; format: in vivo, CB17 SCID mice
Experimental: Animals. CB17 SCID mice (Taconic) 5-8 weeks old were housed 5 to a cage. The Memorial Sloan Kettering Cancer Center Institutional Animal Care and Use Committee (IACUC) approved all protocols and procedures.
Tumor Challenge. Mice were placed under a heat lamp for 3 minutes and immobilized in a mouse restrainer; 0.5 million CHLA136Luc cells in 100 μl were injected into the tail vein using a BD insulin syringe with 28 gauge needle.
(§3) mAb administration. Mice were treated with murine mAbs 3F8, PGNX, R24, against GD2, GM2, GD3 and Rituxan against CD20. Control mice, typically 2 cages of 5 mice, were treated identically, receiving the same volume of PBS at the same intervals.
Imaging. Mice were anaesthetized using isoflurane and injected with 300 μg of D-Luciferin Firefly (Caliper LifeScience, Hopkinton, Mass.). They were imaged 10 minutes later using the IVIS200 in vivo imaging system (Caliper Life Science) over periods of time ranging up to 3 minutes using the software program “Living Image 3.0” (Caliper Life Science). Values are reported as photons/second.
Statistical analysis. Overall survival was defined as the time from IV tumor cell challenge to date of death or day 160. Survival distributions were generated using Kaplan-Meier methodology (Kaplan, “Nonparametric estimation from incomplete observations”, J. Am. Stat. Assoc., 1958, 53:457-81) and comparisons between treatment group and control (PBS) were made via the […] (using Graphpad Prism 5).

p-PRAS40 = assay: Western blot of p-PRAS40 in CHLA136Luc cell extracts; format: cell-based, human; settings: BEZ235; cells treated with PGNX 0.001 μg/m for 4 hours
Experimental: as §2

[7] = tested on: CHLA136Luc, Lan-1-Luc, H524, Hs445, Daudi cells; assay: In vitro cell growth (WST-1) with mAbs and human complement on selected cell lines (FIG. 3); format: cell-based
From the text: as §1

Hs445 = assay: WST-1 cell growth assay, Hs445; format: cell-based, human; settings: low dose, six experiments
From the text: as §1

CD20 = assay: In vivo experiments targeting CD20 (Rituxan): tumor growth; design: species or system SCID mice; settings: data not shown
Experimental: as §3

[8] = BEZ235 alone, 25 or 12.5 mg/kg by gavage daily for 2 weeks

## Cn1cnc2c(F)c(Nc3ccc(Br)cc3Cl)c(C(=O)NOCCO)cc21 [AZD6244]
Tumor cells
  cytotoxicity of PGNX at sublytic low dosages: enhanced

## Cn1c(=O)n(-c2ccc(C(C)(C)C#N)cc2)c2c3cc(-c4cnc5ccccc5c4)ccc3ncc21 [BEZ235]
p-Akt [1]
  p-Akt expression: inhibited
p-Akt [2]; BEZ235 1 μM alone
  p-Akt expression: inhibited; also recorded: decreased p-AKT
p-Akt [2]; BEZ235 at 1 μM
  treatment time giving complete inhibition of p-Akt expression: ≥ 2 h
p-Akt [2]; cells treated for 4 hrs
  BEZ235 dose giving complete inhibition of p-AKT expression: ≥ 0.5 µM
DaudiLuc cells; BEZ235
  cell growth in vitro: decreased
DaudiLuc cells; all BEZ235 doses tested, combined with Rituxan at various doses plus complement, vs each treatment alone
  mAb cytotoxicity: significantly enhanced; also recorded: increased
DaudiLuc cells; combined with low-dose Rituxan (0.0001 μg/ml) plus complement
  accelerated cell growth induced by low dose mAb: significantly inhibited; also recorded: prevented
Colo205Luc cells [3]
  cytotoxicity of Colo205luc cells: significantly enhanced
Colo205Luc cells [4]
  effect on proliferation compared to Wortmannin: greater effect
Colo205Luc cells [4]; 5B1 0.001-0.01 μg/ml (BEZ235), 0.001 μg/ml (Wortmannin)
  accelerated cell growth induced by low dose 5B1: inhibited
CHLA136Luc cells [5]
  effect on proliferation compared to Wortmannin: greater effect
CHLA136Luc cells [5]; BEZ235
  cell growth in vitro: decreased
CHLA136Luc cells [5]; BEZ235 with mAbs R24 and PGNX (Table 2)
  mAb cytotoxicity and low-dose growth acceleration: Comparable results
CHLA136Luc cells [5]; all BEZ235 doses tested, combined with 3F8 at various doses plus complement, vs each treatment alone
  mAb cytotoxicity: significantly enhanced; also recorded: increased
CHLA136Luc cells [5]; combined with low-dose 3F8 (0.001 μg/ml) plus complement
  accelerated cell growth induced by low dose mAb: significantly inhibited; also recorded: prevented
CHLA136Luc cells [6]; [8]
  CHLA136Luc growth: significantly reduced
  survival: prolonged survival
CHLA136Luc cells [6]; BEZ235 by gavage with high dose mAb
  high mAb dose induced growth inhibition: increased
CHLA136Luc cells [6]; BEZ235 by gavage with low-dose PGNX
  low dose mAb (PGNX) induced early tumor growth acceleration: eliminated; also recorded: preventing; also recorded: prevented
CHLA136Luc cells [6]; BEZ235 with mAbs, compared with high-dose PGNX and 3F8 alone
  survival of challenged SCID mice: significantly increasing survival
p-PRAS40
  p-PRAS40 expression: inhibited

## Nc1cc(C(F)(F)F)c(-c2cc(N3CCOCC3)nc(N3CCOCC3)n2)cn1 [BKM120]
Colo205Luc cells [4]
  5B1 cytotoxicity: enhanced
  tumor cell (Colo205) growth: inhibited
  PGNX induced tumor cell cytotoxicity: enhanced
  tumor cell growth induced by low dose PGNX and complement: dramatically inhibited
CHLA136Luc cells [5]
  higher mAb dose (plus complement) cytotoxicity: increased
  low mAb dose (plus complement) growth acceleration: prevented

## CC(=O)Nc1cccc(-n2c(=O)n(C3CC3)c(=O)c3c(Nc4ccc(I)cc4F)n(C)c(=O)c(C)c32)c1 [GSK202011]
Tumor cells
  cytotoxicity of PGNX at sublytic low dosages: enhanced

## NC1(c2ccc(-c3nc4ccn5c(=O)[nH]nc5c4cc3-c3ccccc3)cc2)CCC1 [MK2206]
Colo205Luc cells [4]
  5B1 cytotoxicity: enhanced
  tumor cell (Colo205) growth: inhibited
  PGNX induced tumor cell cytotoxicity: enhanced
  tumor cell growth induced by low dose PGNX and complement: dramatically inhibited
CHLA136Luc cells [5]
  higher mAb dose (plus complement) cytotoxicity: increased
  low mAb dose (plus complement) growth acceleration: prevented

## rituximab [Rituxan]
[7]; high mAb doses, with complement
  tumor growth in vitro: inhibited tumor growth
[7]; highest mAb doses, absence of complement
  complement-independent tumor inhibition: detected
[7]; low mAb doses, exclusively in the presence of complement
  tumor cell growth in vitro: accelerated tumor cell growth
DaudiLuc cells; low dose, single experiment
  cell growth: significantly accelerated growth
Hs445
  experiments with significantly accelerated growth: 4
CD20; doses as low as 0.001 mcg
  tumor growth: slight delay of tumor growth
CD20; doses down to 0.001 mcg
  accelerated tumor growth: not seen
